Results taken from PubChem BioAssay AID1645868 (Buhrlage Lab, Dana-Farber Cancer Institute and Novartis …, 2021).
Calls of active or inactive are those of the source.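 How the source made its calls: active means maximal percent inhibition of the deubiquitinase OTUD3 of at least 30% across the tested doses; inactive means the rest.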

Molecular target: OTU domain-containing protein 3 (Homo sapiens) (UniProt Q5T2D3)
Assay: Validation of screening hits, potency titration, in vitro enzymatic, OTU domain-containing protein 3 DUB inhibitors (AID 1645868)
Conditions: purified OTUD3, ubiquitin-rhodamine cleavage fluorescence, 2 h

Chain of OTU domain-containing protein 3 (Homo sapiens) (Q5T2D3 whole entry, looked up, the tested form may be a part): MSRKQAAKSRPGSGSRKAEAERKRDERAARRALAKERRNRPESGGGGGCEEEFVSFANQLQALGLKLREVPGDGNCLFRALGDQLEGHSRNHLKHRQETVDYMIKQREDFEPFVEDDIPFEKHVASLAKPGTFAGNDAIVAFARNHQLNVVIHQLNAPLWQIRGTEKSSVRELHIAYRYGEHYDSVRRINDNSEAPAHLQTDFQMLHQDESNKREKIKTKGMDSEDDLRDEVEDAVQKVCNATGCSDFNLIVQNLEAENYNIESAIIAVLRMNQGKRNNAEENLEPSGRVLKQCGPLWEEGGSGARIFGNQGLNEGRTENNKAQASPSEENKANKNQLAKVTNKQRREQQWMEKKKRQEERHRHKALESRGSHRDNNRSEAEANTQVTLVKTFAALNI

In the case of Cn1nc(-c2nc(-c3ccccc3)no2)c2c1CCN(C(=O)C1CC1)C2, the IC50 is reported as > 50 µM (inactive).

O=C(CCCCn1c(=O)[nH]c2ccccc2c1=O)Nc1cccc(Cl)c1 gave an IC50 of 21.6 µM.

Work on COc1cc(C#N)c(NC(=NCc2ccc(F)cc2)SC)cc1OC yielded an IC50 of 49 µM.

CC(=O)Nc1ccc([C@H]2OCC(=O)N(C3CCOCC3)[C@@H]2CO)cc1 was tested, and the IC50 was > 50 µM (inactive).

With CN1CC2CN(C(=O)c3ccc(F)cc3)CCN2Cc2ccccc21 (stereo not drawn) the IC50 was > 50 µM (inactive).

In the case of Cc1ccc(NC(=O)c2nnn(-c3ccccc3Br)c2C)cc1C, the IC50 is reported as > 50 µM (inactive).

CCC(=O)Nc1ccc(-c2nc(Cn3cc(C)cn3)c(C)o2)cc1 was tested, and the IC50 was > 50 µM (inactive).

In the case of N#Cc1cn(CC(=O)N2CCc3ccccc32)c2ccccc12, the IC50 is reported as > 50 µM (inactive).

With CC1CC(=O)Nc2ccccc2N1S(=O)(=O)c1ccc(C#N)cc1 (stereo not drawn) the IC50 was > 50 µM (inactive).

In the case of CCn1c(=N)n(CCOc2ccc(F)cc2)c2ccccc21, the IC50 is reported as > 50 µM (inactive).

In the case of Cc1ccc2c(c1)[C@]1(C(=O)N2)[C@@H](C(=O)c2ccccc2)[C@]2(C(=O)Nc3ccccc32)[C@@H]2CCCN21, the IC50 is reported as 25.1 µM.

COc1cc(NC(=O)c2ccc3c(c2)OCO3)ccc1-c1cc2ccccc2oc1=O was tested, and the IC50 was > 50 µM (inactive).

For Cc1ccc(Cl)cc1NC(=O)COC(=O)c1ccc2ccccc2n1, the IC50 was > 50 µM (inactive).

COc1ccc(CNC(=O)Nc2cccc3ccccc23)cc1 was tested, and the IC50 was 13.8 µM.

In the case of CC(C)N(C(=O)Cn1c(=O)[nH]c2ccccc21)c1ccccc1, the IC50 is reported as > 50 µM (inactive).

In the case of CC1CCN(c2cc(-n3cnc(C(=O)N4CCCCC4)c3)ncn2)CC1, the IC50 is reported as > 50 µM (inactive).

Cc1sc2ncn3c(=O)n(CC(=O)Nc4ccc(F)c(Cl)c4)nc3c2c1C was tested, and the IC50 was > 50 µM (inactive).

O=c1oc2ccccc2c2nn(-c3ccccn3)cc12 was tested, and the IC50 was > 50 µM (inactive).

CC(=O)[C@H]1c2c(c(O)c3c(O)cccc3c2-c2c3c(c(O)c4c(O)cccc24)C(=O)C[C@](C)(O)[C@H]3C(C)=O)C(=O)C[C@]1(C)O was tested, and the IC50 was > 50 µM (inactive).

With C/C=C\C1=CC(=O)[C@]23C[C@H]2[C@]2(C)CO[C@@]1(O)[C@@]3(O)O2 the IC50 was > 50 µM (inactive).

In the case of Fc1cccc(-n2cc(-c3noc(-c4ccc[nH]4)n3)nn2)c1, the IC50 is reported as > 50 µM (inactive).

COc1ccc(COC(=O)C2=C(C)NC(=O)CC2c2cccc([N+](=O)[O-])c2)cc1 (stereo not drawn) was tested, and the IC50 was > 50 µM (inactive).

In the case of NC(=O)Cn1c(=O)n(Cc2ccc(C(=O)NC3CCCC3)cc2)c(=O)c2ccccc21, the IC50 is reported as > 50 µM (inactive).

O=C(O)Cc1ccc(Nc2nc3ccccc3n3nnnc23)cc1 was tested, and the IC50 was > 50 µM (inactive).

For Cc1c(C(=O)NCc2cccc(Br)c2)oc2c1-c1[nH]ncc1CC2, the IC50 was 48.2 µM.

With Cc1cc(N2CCOCC2)nc2ccc(NC(=O)CCC(=O)Nc3ccc(F)cc3)cc12 the IC50 was > 50 µM (inactive).

With CCOc1ccc(-c2nc(C#N)c(N3CCN(C(=O)c4ccccc4C)CC3)o2)cc1 the IC50 was 43.4 µM.

In the case of CCOC(=O)c1ccc(NC(=O)c2cnc(N3CCOCC3)nc2)cc1, the IC50 is reported as > 50 µM (inactive).

In the case of C=C1CCC2[C@](C)(CCC[C@]2(C)C(=O)OC)[C@H]1CCc1ccoc1C[N+](C)(C)Cc1ccccc1 (stereo partly drawn), the IC50 is reported as > 50 µM (inactive).

With COc1cccc(NC(=O)C2CCC(CNS(=O)(=O)c3ccc4c(c3)C(C)(C)C(=O)N4C)CC2)c1 (stereo not drawn) the IC50 was > 50 µM (inactive).

Cc1cccc(Cl)c1NC(=O)Nc1ccc(NC(=O)c2ccccc2O)cc1 showed an IC50 of 47.8 µM.

Work on O=C(Cn1c(=O)n(Cc2ccc3c(c2)OCO3)c(=O)c2ncccc21)c1ccc(Cl)cc1 yielded an IC50 of 33.9 µM.

Cc1ccc2[nH]c(=O)c(CN(CC3COCCO3)S(=O)(=O)c3ccc(F)cc3)cc2c1 (stereo not drawn) showed an IC50 of 18.9 µM.

Cc1cccc(S(=O)(=O)N2CCc3nc4ccccc4n3CC2)c1 showed an IC50 of 36.5 µM.

With COc1ccc(NC(=O)c2ccc(-n3nnnc3SC)cc2)cc1Cl the IC50 was > 50 µM (inactive).

In the case of CCN(CC(=O)Nc1cc(C)on1)c1cccc2ccccc12, the IC50 is reported as > 50 µM (inactive).

In the case of O=C1N(Cc2cccc(Cl)c2)CCN1c1ccc2c(c1)CCC2, the IC50 is reported as > 50 µM (inactive).

Compound Cc1cc(=O)c2c(O)oc(O)c3c(O)cc(=O)c1c32 has an IC50 of 33.9 µM.

In the case of Cc1cc(=O)oc2cc(OCC(=O)Nc3cc(Cl)ccc3N3CCOCC3)ccc12, the IC50 is reported as > 50 µM (inactive).

In the case of Cc1cc(C)c2cc(C(=O)NC3CCN(Cc4ccccc4)CC3)[nH]c2c1, the IC50 is reported as 32.1 µM.

Cc1ccc(NC(=O)c2nnn(-c3ccccc3)n2)cc1F was tested, and the IC50 was > 50 µM (inactive).

In the case of COc1ccccc1-c1ccc(CN2[C@@H](c3ccccc3)C[C@@H]3NC(=O)CCC[C@H]32)cc1, the IC50 is reported as > 50 µM (inactive).

In the case of COc1ccc(NC(=O)c2nnn(-c3ccccc3)c2C)cc1OC, the IC50 is reported as > 50 µM (inactive).

For O=C(c1ccco1)N1CCCC2(C1)Nc1cccnc1NC2=NC1CCCC1 (stereo not drawn), the IC50 was > 50 µM (inactive).

Compound CSc1ncc(C(=O)NC(C)c2ccccc2)c(-c2ccccc2)n1 (stereo not drawn) has an IC50 of 22.1 µM.

For O=C(COc1cccc2c1CCN(Cc1cccnc1)C2=O)Nc1ccc2c(c1)OCCO2, the IC50 was > 50 µM (inactive).

For CCC1(C)Cc2c(sc3nc(SCC(=O)Nc4ccc(C(C)=O)cc4)nc(N)c23)CO1 (stereo not drawn), the IC50 was 32.4 µM.

In the case of COc1ccc(NC2c3ccccc3C(=O)N2c2ccccn2)cc1 (stereo not drawn), the IC50 is reported as > 50 µM (inactive).
